The values that follow come from US20070149404A1, “Microbicidal compositions” (BASF AKTIENGESELLSCHAFT, priority 2003, published 2007).

Structures can show the parent of a compound that is named as a salt.

One experiment concerns algae. As to the kind of experiment: Efficacy against algal growth on painted plaster surface (BBA MOAT 33). The format is cell-based. The note with it: 0.5% in paint. The procedure:
(§1) Testing was performed according to the BS3900 G6 and BBA MOAT 33 methods for evaluation versus fungi and algae, respectively. The methods involve painting a substrate panel with the coating and leaching under running water for 72 hours. The substrates are incubated for 56 days after being inoculated with fungi or algae. Performance is judged by comparing with suitable control samples ie without biocide, a positive control and for fungi with substrate panels that have not been leached.
(§2) Performance rating on painted test substrates (Score of 0, 1 and 2 is considered as a pass) • 0=no growth • 1=trace of growth • 2=growth on 1-10% of test face • 3=growth on 10-30% of test face • 4=growth on 30-70% of test face
(§3) 5=growth on 70-100% of test face.

The test system of experiment [1] is fungi. As to the kind of experiment: Efficacy against fungal growth on painted wooden surface (BS3900 G6). The format is cell-based. The note with it: 0.5% in paint. The procedure: as §1, §2, §3
A further experiment has as its system Micrococcus luteus. As to the kind of experiment: Intrinsic activity, microtitre plate method, ML. The format is cell-based. On the set-up: key: rating 0 = no activity to 5 = biostatic, may be biocide. How it is done: (§4) The chemistries were tested for their activity against a range of organisms via a microtitre plate method. The test organisms were: • ML—Micrococcus luteus • SA—Staphylococcus aureus • EC—Escherichia coli • PA—Pseudomonas aeruginosa • CF—Citrobacter freundii • PM—Proteus mirabilis • CA—Candida albicans • SC—Saccharomyces cerevisiae • AN—Aspergillus niger • PF—Penicillium funiculosum • AA—Alternaria alternata
(§5) Using the following rating scale: • 0=no activity • 1=minimal inhibition • 2=inhibition • 3=clear inhibition • 4=clear inhibition biostatic, may be biocide activity • 5=biostatic, may be biocide activity
(§6) Readings of 4 and possibly 3 were considered to be valid for biocidal applications.

The next experiment deals with Aspergillus niger. Nature of the experiment: Intrinsic activity, microtitre plate method, AN. The format is cell-based. On the set-up: key: rating 0 = no activity to 5 = biostatic, may be biocide. The procedure:
as §4, §5, §6

A further experiment concerns Staphylococcus aureus. As to the kind of experiment: Intrinsic activity, microtitre plate method, SA. The class given is cell-based. More on the design: key: 0 = no activity to 5 = biostatic, may be biocide activity. How it is done:
as §4, §5, §6

The subject of another experiment is Proteus mirabilis. As to the kind of experiment: Intrinsic activity, microtitre plate method, PM. The class given is cell-based. On the set-up: key: rating 0 = no activity to 5 = biostatic, may be biocide. How it is done: as §4, §5, §6
For another experiment, the system named is Penicillium funiculosum. Nature of the experiment: Intrinsic activity, microtitre plate method, PF. The class given is cell-based. More on the design: key: rating 0 = no activity to 5 = biostatic, may be biocide. How it is done:
as §4, §5, §6

In a further experiment the test system is Saccharomyces cerevisiae. Nature of the experiment: Intrinsic activity, microtitre plate method, SC. The class given is cell-based. More on the design: key: rating 0 = no activity to 5 = biostatic, may be biocide. The procedure: as §4, §5, §6
Another experiment concerns Escherichia coli. Nature of the experiment: Intrinsic activity, microtitre plate method, EC. The format is cell-based. On the set-up: key: rating 0 = no activity to 5 = biostatic, may be biocide. The procedure:
as §4, §5, §6

In a further experiment the test system is Candida albicans. Nature of the experiment: Intrinsic activity, microtitre plate method, CA. More on the design: key: rating 0 = no activity to 5 = biostatic, may be biocide. The format is cell-based. The procedure:
as §4, §5, §6

The test system of a further experiment is Bacteria. As to the kind of experiment: Intrinsic activity, microtitre plate method, mean score over bacteria. The format is cell-based, ML, SA, EC, PA, CF, PM. As to conditions: performance against organisms/no of organisms, 0 to <3 poor, >3 inhibition, >4 biostasis, biocidal activity. The procedure:
as §4, §5, §6

Another experiment has as its system Alternaria alternata. As to the kind of experiment: Intrinsic activity, microtitre plate method, AA. The class given is cell-based. More on the design: key: rating 0 = no activity to 5 = biostatic, may be biocide. How it is done:
as §4, §5, §6

Experiment [2] concerns Fungi. As to the kind of experiment: Intrinsic activity, microtitre plate method, mean score over fungi. The class given is cell-based, CA, SC, AN, PF, AA. The note with it: performance against organisms/no of organisms, 0 to <3 poor, >3 inhibition, >4 biostasis, biocidal activity. The procedure:
as §4, §5, §6

A further experiment concerns Citrobacter freundii. Nature of the experiment: Intrinsic activity, microtitre plate method, CF. The format is cell-based. On the set-up: key: rating 0 = no activity to 5 = biostatic, may be biocide. The procedure: as §4, §5, §6
Another experiment deals with test bacteria and fungi. As to the kind of experiment: Intrinsic activity against bacteria and fungi, microtitre plate method, summary in words. The format is cell-based. The note with it: for Activity against the test bacteria and fungi: 1000 and 500 ppm a.i. The procedure: as §4, §5, §6
For another experiment, the system named is Pseudomonas aeruginosa. As to the kind of experiment: Intrinsic activity, microtitre plate method, PA. The class given is cell-based. On the set-up: key: rating 0 = no activity to 5 = biostatic, may be biocide. How it is done:
as §4, §5, §6

Consider `CCOCn1c(-c2ccc(Cl)cc2)c(C#N)c(Br)c1C(F)(F)F` [Chlorfenapyr, 4-Brom-2-(p-chlorphenyl)-1-(ethoxymethyl)-5-(tri-fluormethyl)-pyrrole-3-carbonitril], for which the “MEAN ALGAL GROWTH RATING 28 days” value in the experiment on algae (painted plaster, leached 72 hours, 28 days after inoculation, mean of ratings 0-5) is reported as 3 (3=growth on 10-30% of test face). In addition, in the experiment on algae (painted plaster, leached 72 hours, 56 days after inoculation, mean of ratings 0-5), the “MEAN ALGAL GROWTH RATING 56 days” value is recorded as 3.5. The “% Improved after 56 days (algal growth)” value in the experiment with algae (painted plaster, versus unpreserved paint, 56 days) was found to be 12.5%. In addition, the “Improvement against algal growth on the plaster surface” value with algae (plaster) is reported as “exhibited an improvement”. Further, the “Improvement against fungal growth on the wood surface” value in the experiment on fungi [1] is listed as “exhibited an improvement”. In the experiment on fungi [1] (constant running water for 72 hours, 28 days, mean of ratings 0-5), the “MEAN FUNGAL GROWTH RATING - WOOD SUBSTRATE 28 days leached” value was 3 (3=growth on 10-30% of test face). Moreover, the “MEAN FUNGAL GROWTH RATING - WOOD SUBSTRATE 56 days leached” value in the experiment with fungi [1] (constant running water for 72 hours, 56 days, mean of ratings 0-5) came to 3.5. Further, in the experiment with fungi [1] (leached 72 hours, versus unpreserved paint), the “% Improved After 56 days leached (fungal, wood)” value was 12.5%. Besides, the “MEAN FUNGAL GROWTH RATING - WOOD SUBSTRATE 28 days as applied” value with fungi [1] (no leaching with water, 28 days, mean of ratings 0-5) is on record as 5 (5=growth on 70-100% of test face). In addition, the “MEAN FUNGAL GROWTH RATING - WOOD SUBSTRATE 56 days as applied” value in the experiment on fungi [1] (no leaching with water, 56 days, mean of ratings 0-5) is listed as 5 (5=growth on 70-100% of test face).
Regarding `CC(Oc1ccc(Cl)cc1Cl)C(=O)O` (stereo not shown) [Dichlorprop, 2,4-Dichlorophenoxy-propionic acid], the ML rating in the experiment on Micrococcus luteus (500 ppm a.i.) and in the experiment with Micrococcus luteus (1000 ppm a.i.) was 5 in each case. Further, the AN rating in the experiment on Aspergillus niger (500 ppm a.i.) and in the experiment with Aspergillus niger (1000 ppm a.i.) was 5 in each case. Moreover, the SA rating in the experiment on Staphylococcus aureus (500 ppm a.i.) is 3; in the experiment on Staphylococcus aureus (1000 ppm a.i.) it was 5. The PM rating is given as 3 in the experiment with Proteus mirabilis (500 ppm a.i.) and 5 in the experiment with Proteus mirabilis (1000 ppm a.i.). The PF rating with Penicillium funiculosum (500 ppm a.i.) and with Penicillium funiculosum (1000 ppm a.i.) was 5 each time. Besides, the SC rating in the experiment with Saccharomyces cerevisiae (500 ppm a.i.) is recorded as 1; in the experiment on Saccharomyces cerevisiae (1000 ppm a.i.), 5. Besides, the EC rating was determined as 3 in the experiment on Escherichia coli (500 ppm a.i.) and 5 in the experiment on Escherichia coli (1000 ppm a.i.). Moreover, the CA rating is 2 in the experiment with Candida albicans (500 ppm a.i.) and 5 with Candida albicans (1000 ppm a.i.). The “Bacteria Mean Score” value in the experiment on Bacteria (500 ppm a.i.) is 3.3; with Bacteria (1000 ppm a.i.) it was 5.0. Moreover, the AA rating with Alternaria alternata (500 ppm a.i.) and with Alternaria alternata (1000 ppm a.i.) was 5 throughout. For the same compound, the “Fungi Mean Score” value with Fungi [2] (500 ppm a.i.) came out at 3.6; with Fungi [2] (1000 ppm a.i.), 5.0. The CF rating is 3 with Citrobacter freundii (500 ppm a.i.) and 5 in the experiment with Citrobacter freundii (1000 ppm a.i.). The “Activity against the test bacteria and fungi” value with test bacteria and fungi is “good activity”. Moreover, the PA rating was 3 in the experiment on Pseudomonas aeruginosa (500 ppm a.i.) and 5 with Pseudomonas aeruginosa (1000 ppm a.i.).
On to `CCCCCCCCCCCCNC(=N)N` [Dodine, 1-dodecylguanidinium hydrochloride or—acetate], for which the ML rating in the experiment with Micrococcus luteus (500 ppm a.i.) and in the experiment with Micrococcus luteus (1000 ppm a.i.) was 5 throughout. Moreover, the AN rating in the experiment on Aspergillus niger (500 ppm a.i.) and in the experiment on Aspergillus niger (1000 ppm a.i.) was 5 throughout. The SA rating in the experiment with Staphylococcus aureus (500 ppm a.i.) and with Staphylococcus aureus (1000 ppm a.i.) was 5 each time. The PM rating in the experiment with Proteus mirabilis (500 ppm a.i.) and with Proteus mirabilis (1000 ppm a.i.) was 5 throughout. The PF rating in the experiment with Penicillium funiculosum (500 ppm a.i.) and with Penicillium funiculosum (1000 ppm a.i.) was 5 in each case. Besides, the SC rating in the experiment with Saccharomyces cerevisiae (500 ppm a.i.) and with Saccharomyces cerevisiae (1000 ppm a.i.) was 5 throughout. The EC rating in the experiment with Escherichia coli (500 ppm a.i.) and with Escherichia coli (1000 ppm a.i.) was 5 in each case. The CA rating with Candida albicans (500 ppm a.i.) and in the experiment on Candida albicans (1000 ppm a.i.) was 5 throughout. In addition, the entries for the “Bacteria Mean Score” value in the experiment on Bacteria (500 ppm a.i.) and in the experiment with Bacteria (1000 ppm a.i.) were 4.3 and 4.7, respectively. Also, the AA rating in the experiment with Alternaria alternata (500 ppm a.i.) and in the experiment on Alternaria alternata (1000 ppm a.i.) was 5 in each case. Also, the “Fungi Mean Score” value with Fungi [2] (500 ppm a.i.) and with Fungi [2] (1000 ppm a.i.) was 5.0 each time. The CF rating with Citrobacter freundii (500 ppm a.i.) and in the experiment with Citrobacter freundii (1000 ppm a.i.) was 5 each time. Besides, the “Activity against the test bacteria and fungi” value in the experiment with test bacteria and fungi was “good activity”. Besides, the PA rating with Pseudomonas aeruginosa (500 ppm a.i.) is reported as 1; with Pseudomonas aeruginosa (1000 ppm a.i.), 3.
Consider “(1RS, 5RS;1RS, 5SR)-5- (4-chlorobenzyl)-2,2-di- methyl-1-(1H-1,2,4-tri- azol-1-ylmethyl)cyclo- pentanol [Metconazole]”, for which the ML rating turned out to be 2 with Micrococcus luteus (500 ppm a.i.) and 3 in the experiment on Micrococcus luteus (1000 ppm a.i.). Besides, the AN rating with Aspergillus niger (500 ppm a.i.) and in the experiment with Aspergillus niger (1000 ppm a.i.) was 5 throughout. Moreover, the SA rating in the experiment with Staphylococcus aureus (500 ppm a.i.) and in the experiment on Staphylococcus aureus (1000 ppm a.i.) was 1 each time. Further, the PM rating in the experiment with Proteus mirabilis (500 ppm a.i.) and in the experiment on Proteus mirabilis (1000 ppm a.i.) was 0 throughout. The PF rating in the experiment on Penicillium funiculosum (500 ppm a.i.) and in the experiment on Penicillium funiculosum (1000 ppm a.i.) was 5 throughout. Moreover, the SC rating with Saccharomyces cerevisiae (500 ppm a.i.) and in the experiment with Saccharomyces cerevisiae (1000 ppm a.i.) was 3 in each case. In addition, the EC rating in the experiment on Escherichia coli (500 ppm a.i.) and with Escherichia coli (1000 ppm a.i.) was 0 each time. Further, the CA rating with Candida albicans (500 ppm a.i.) and with Candida albicans (1000 ppm a.i.) was 3 each time. The “Bacteria Mean Score” value with Bacteria (500 ppm a.i.) was 0.5; with Bacteria (1000 ppm a.i.), 0.7. Also, the AA rating in the experiment on Alternaria alternata (500 ppm a.i.) and with Alternaria alternata (1000 ppm a.i.) was 5 throughout. Further, the “Fungi Mean Score” value in the experiment with Fungi [2] (500 ppm a.i.) and in the experiment on Fungi [2] (1000 ppm a.i.) was 4.2 each time. The CF rating with Citrobacter freundii (500 ppm a.i.) and in the experiment on Citrobacter freundii (1000 ppm a.i.) was 0 each time. Besides, the “Spectrum of activity” value with test bacteria and fungi (at both concentrations (1000 and 500 ppm a.i.)) is on record as “only display antifungal activity”. Besides, the PA rating in the experiment on Pseudomonas aeruginosa (500 ppm a.i.) and in the experiment on Pseudomonas aeruginosa (1000 ppm a.i.) was 0 each time.
